Data reported in patent US9278914B2, “SARMs and method of use thereof” (UNIVERSITY OF TENNESSEE RESEARCH FOUNDATION, priority 2004, dated 2016).

How the values were obtained:
[1] = system: intact male Sprague-Dawley rats; assay: Anabolic and androgenic activity in intact male rats, daily oral gavage; type: in vivo, rat
Procedure: The test article for this study was weighed and dissolved in 10% DMSO (Fisher) diluted with PEG 300 (Acros Organics, N.J.) for preparation of the appropriate dosage concentrations. The animals were housed in groups of 2 to 3 animals per cage. Animals were randomly assigned to one of seven groups consisting of 4 to 5 animals per group. Control groups (intact and ORX) were administered vehicle daily. […] Where appropriate, animals were castrated on day one of the study. Treatment with compound of formula S-II began nine days post ORX and was administered daily via oral gavage for fourteen days.
The animals were sacrificed under anesthesia (ketamine/xyalzine, 87:13 mg/kg) and body weights were recorded. In addition, ventral prostate, seminal vesicles, and levator ani muscle were removed, individually weighed, normalized to body weight, and expressed as a percentage of intact control. Student's T-test was used to compare individual dose groups to the intact control group. Significance was defined a priori as a P-value<0.05. Ventral prostate and seminal vesicle weights were evaluated as a measure of androgenic activity, whereas levator ani muscle weight was evaluated as a measure of anabolic activity. Blood was collected from the abdominal aorta, centrifuged, and sera were frozen at −80° C. prior to determination of serum hormone levels. Serum luteinizing hormone (LH) and follicle stimulating hormone (FSH) concentrations were determined.
(§1) The test article for this study was weighed and dissolved in 10% DMSO (Fisher) diluted with PEG 300 (Acros Organics, N.J.) for preparation of the appropriate dosage concentrations. The animals were housed in groups of 2 to 3 animals per cage. Animals were randomly assigned to one of seven groups consisting of 4 to 5 animals per group. Control groups (intact and ORX) were administered vehicle daily. Compound of formula S-XXIII was administered via oral gavage at doses of 0.01, 0.03, 0.1, 0.3, 0.75, and 1 mg/day to both intact and ORX groups. Where appropriate, animals were castrated on day one of the study. Treatment with compound of formula S-XXIII began nine days post ORX and was administered daily via oral gavage for fourteen days.
as §1, with “S-XXIV” for “S-XXIII”, “study.” for “study. Treatment with compound of formula S-XXIII began nine days post ORX and was administered daily via oral gavage for fourteen days.”

[2] = molecular target: CYP1A2 (Homo sapiens (Human), UniProt P05177); assay: In vitro CYP inhibition assay; type: biochemical
Chain of CYP1A2 (P05177 whole entry): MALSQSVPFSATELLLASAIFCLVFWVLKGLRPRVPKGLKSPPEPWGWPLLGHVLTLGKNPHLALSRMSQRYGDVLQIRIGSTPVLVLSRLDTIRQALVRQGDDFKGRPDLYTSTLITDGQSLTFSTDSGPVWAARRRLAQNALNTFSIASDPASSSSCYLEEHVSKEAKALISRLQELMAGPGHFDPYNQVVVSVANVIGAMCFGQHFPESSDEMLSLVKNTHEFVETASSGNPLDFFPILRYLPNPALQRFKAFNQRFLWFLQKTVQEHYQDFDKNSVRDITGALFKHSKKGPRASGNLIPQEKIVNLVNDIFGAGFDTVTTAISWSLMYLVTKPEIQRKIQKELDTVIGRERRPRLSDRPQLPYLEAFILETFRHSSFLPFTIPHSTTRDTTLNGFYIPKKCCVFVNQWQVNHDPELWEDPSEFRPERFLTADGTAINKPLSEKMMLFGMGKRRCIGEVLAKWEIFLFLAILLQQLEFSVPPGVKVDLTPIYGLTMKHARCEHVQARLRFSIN
Procedure: Averages (minus background) and IC50 values were calculated.

Q: Which results are given for C[C@](O)(COc1ccc(Cl)c(F)c1)C(=O)Nc1ccc(C#N)c(C(F)(F)F)c1 [S-II, (S)-3-(4-chloro-3-fluorophenoxy)-N-(4-cyano-3-(trifluoromethyl)phenyl)-2-hydroxy-2-methylpropanamide]?
A: Levator ani muscle weight ([1]; 0.01 mg/day oral): 100%±10%; Prostate weight ([1]; 0.01 mg/day oral): 117%±20%; Levator ani muscle weight ([1]; 0.03 mg/day oral): 98%±7%; Prostate weight ([1]; 0.03 mg/day oral): 98%±15%; Levator ani muscle weight ([1]; 0.1 mg/day oral): 110%±5%; Prostate weight ([1]; 0.1 mg/day oral): 82%±20%; Levator ani muscle weight ([1]; 0.3 mg/day oral): 110%±5%; Prostate weight ([1]; 0.3 mg/day oral): 62%±5%; Levator ani muscle weight ([1]; 0.75 mg/day oral): 125%±10%; Prostate weight ([1]; 0.75 mg/day oral): 107%±30%; Levator ani muscle weight ([1]; 1 mg/day oral): 129%±10%; Prostate weight ([1]; 1 mg/day oral): 110%±14%; IC50 [2]: > 20 µM
